The source made the active and inactive calls. No rule for the calls is given here.
Test system: CCRIS mutagenicity, Ames/micronucleus/aberration tests
Experiment: CCRIS mutagenicity studies
[1] = Test System: AMES SALMONELLA TYPHIMURIUM, Strain/Indicator: TA98, Metabolic Activation: NONE, Method: PREINCUBATION
[2] = Test System: AMES SALMONELLA TYPHIMURIUM, Strain/Indicator: TA98, Metabolic Activation: NONE, Method: STANDARD PLATE
[3] = Test System: AMES SALMONELLA TYPHIMURIUM, Strain/Indicator: TA98, Metabolic Activation: RAT, LIVER, S-9, AROCLOR 1254, Method: STANDARD PLATE
[4] = Test System: AMES SALMONELLA TYPHIMURIUM, Strain/Indicator: TA100, Metabolic Activation: HAMSTER, LIVER, S-9, AROCLOR 1254 (10%), Method: PREINCUBATION
[5] = Test System: AMES SALMONELLA TYPHIMURIUM, Strain/Indicator: TA100, Metabolic Activation: NONE, Method: PREINCUBATION
[6] = Test System: AMES SALMONELLA TYPHIMURIUM, Strain/Indicator: TA100, Metabolic Activation: NONE, Method: STANDARD PLATE
[7] = Test System: AMES SALMONELLA TYPHIMURIUM, Strain/Indicator: TA100, Metabolic Activation: RAT, LIVER, S-9, AROCLOR 1254 (10%), Method: PREINCUBATION
[8] = Test System: AMES SALMONELLA TYPHIMURIUM, Strain/Indicator: TA100, Metabolic Activation: RAT, LIVER, S-9, AROCLOR 1254, Method: STANDARD PLATE
[9] = Test System: AMES SALMONELLA TYPHIMURIUM, Strain/Indicator: TA1535, Metabolic Activation: HAMSTER, LIVER, S-9, AROCLOR 1254 (10%), Method: PREINCUBATION
[10] = Test System: AMES SALMONELLA TYPHIMURIUM, Strain/Indicator: TA1535, Metabolic Activation: NONE, Method: PREINCUBATION
[11] = Test System: AMES SALMONELLA TYPHIMURIUM, Strain/Indicator: TA1535, Metabolic Activation: NONE, Method: STANDARD PLATE
[12] = Test System: AMES SALMONELLA TYPHIMURIUM, Strain/Indicator: TA1535, Metabolic Activation: RAT, LIVER, S-9, AROCLOR 1254 (10%), Method: PREINCUBATION
[13] = Test System: AMES SALMONELLA TYPHIMURIUM, Strain/Indicator: TA1535, Metabolic Activation: RAT, LIVER, S-9, AROCLOR 1254, Method: STANDARD PLATE
[14] = Test System: AMES SALMONELLA TYPHIMURIUM, Strain/Indicator: TA1537, Metabolic Activation: NONE, Method: STANDARD PLATE
[15] = Test System: AMES SALMONELLA TYPHIMURIUM, Strain/Indicator: TA1537, Metabolic Activation: RAT, LIVER, S-9, AROCLOR 1254, Method: STANDARD PLATE

`[O]=[Zr]` was tested, and the mutagenic call (Test System: AMES SALMONELLA TYPHIMURIUM, Strain/Indicator: TA98, Metabolic Activation: HAMSTER, LIVER, S-9, AROCLOR 1254 (10%), Method: PREINCUBATION) was “inactive; negative”, the mutagenic call (Test System: AMES SALMONELLA TYPHIMURIUM, Strain/Indicator: TA98, Metabolic Activation: HAMSTER, LIVER, S-9, AROCLOR 1254, Method: STANDARD PLATE) was “inactive; negative” and the mutagenic call [1] was “inactive; negative”. For the same compound, the mutagenic call [2] was “inactive; negative”, the mutagenic call (Test System: AMES SALMONELLA TYPHIMURIUM, Strain/Indicator: TA98, Metabolic Activation: RAT, LIVER, S-9, AROCLOR 1254 (10%), Method: PREINCUBATION) was “inactive; negative” and the mutagenic call [3] was “inactive; negative”. For the same compound, the mutagenic call [4] was “inactive; negative”, the mutagenic call (Test System: AMES SALMONELLA TYPHIMURIUM, Strain/Indicator: TA100, Metabolic Activation: HAMSTER, LIVER, S-9, AROCLOR 1254, Method: STANDARD PLATE) was “inactive; negative” and the mutagenic call [5] was “inactive; negative”. For the same compound, the mutagenic call [6] was “inactive; negative”, the mutagenic call [7] was “inactive; negative” and the mutagenic call [8] was “inactive; negative”. The mutagenic call [9] was “inactive; negative”, the mutagenic call (Test System: AMES SALMONELLA TYPHIMURIUM, Strain/Indicator: TA1535, Metabolic Activation: HAMSTER, LIVER, S-9, AROCLOR 1254, Method: STANDARD PLATE) was “inactive; negative” and the mutagenic call [10] was “inactive; negative”. The mutagenic call [11] was “inactive; negative”, the mutagenic call [12] was “inactive; negative” and the mutagenic call [13] was “inactive; negative”. The mutagenic call (Test System: AMES SALMONELLA TYPHIMURIUM, Strain/Indicator: TA1537, Metabolic Activation: HAMSTER, LIVER, S-9, AROCLOR 1254 (10%), Method: PREINCUBATION) was “inactive; negative”, the mutagenic call (Test System: AMES SALMONELLA TYPHIMURIUM, Strain/Indicator: TA1537, Metabolic Activation: HAMSTER, LIVER, S-9, AROCLOR 1254, Method: STANDARD PLATE) was “inactive; negative” and the mutagenic call (Test System: AMES SALMONELLA TYPHIMURIUM, Strain/Indicator: TA1537, Metabolic Activation: NONE, Method: PREINCUBATION) was “inactive; negative”. For the same compound, the mutagenic call [14] was “inactive; negative”, the mutagenic call (Test System: AMES SALMONELLA TYPHIMURIUM, Strain/Indicator: TA1537, Metabolic Activation: RAT, LIVER, S-9, AROCLOR 1254 (10%), Method: PREINCUBATION) was “inactive; negative” and the mutagenic call [15] was “inactive; negative”. The mutagenic call (Test System: AMES SALMONELLA TYPHIMURIUM, Strain/Indicator: TA1538, Metabolic Activation: HAMSTER, LIVER, S-9, AROCLOR 1254, Method: STANDARD PLATE) was “inactive; negative”, the mutagenic call (Test System: AMES SALMONELLA TYPHIMURIUM, Strain/Indicator: TA1538, Metabolic Activation: NONE, Method: STANDARD PLATE) was “inactive; negative” and the mutagenic call (Test System: AMES SALMONELLA TYPHIMURIUM, Strain/Indicator: TA1538, Metabolic Activation: RAT, LIVER, S-9, AROCLOR 1254, Method: STANDARD PLATE) was “inactive; negative”. The mutagenic call (Test System: MOUSE LYMPHOMA, Strain/Indicator: L5178Y (TK+/TK-), Metabolic Activation: NONE, Method: SUSPENSION/PLATE) was “inactive; negative. reevaluation of results: negative” and the mutagenic call (Test System: MOUSE LYMPHOMA, Strain/Indicator: L5178Y (TK+/TK-), Metabolic Activation: RAT, LIVER, S-9, AROCLOR 1254, Method: SUSPENSION/PLATE) was “inactive; negative. reevaluation of results: negative”.

For `O=C1Nc2ccc(Cl)cc2C(c2ccccc2)=NC1O` (configuration not stated), the mutagenic call (End Point: IN VITRO MICRONUCLEUS, Test System: HUMAN - HUMAN AMNIOTIC FLUID FIBROBLAST-LIKE (AFFL) CELLS, Metabolic Activation: NONE) was “active; positive”, the mutagenic call (End Point: IN VITRO MICRONUCLEUS, Test System: MOUSE LYMPHOMA L5178Y CELLS, Metabolic Activation: NONE) was “active; positive” and the mutagenic call (End Point: IN VITRO MICRONUCLEUS, Test System: SYRIAN HAMSTER EMBRYO FIBROBLAST (SHE) CELLS, Metabolic Activation: NONE) was “active; positive”. For the same compound, the mutagenic call (Test System: AMES SALMONELLA TYPHIMURIUM, Strain/Indicator: TA97, Metabolic Activation: HAMSTER, LIVER, S-9, AROCLOR 1254 (10%), Method: PREINCUBATION) was “inactive; negative”, the mutagenic call (Test System: AMES SALMONELLA TYPHIMURIUM, Strain/Indicator: TA97, Metabolic Activation: HAMSTER, LIVER, S-9, AROCLOR 1254 (30%), Method: PREINCUBATION) was “inactive; negative” and the mutagenic call (Test System: AMES SALMONELLA TYPHIMURIUM, Strain/Indicator: TA97, Metabolic Activation: NONE, Method: PREINCUBATION) was “inactive; negative”. For the same compound, the mutagenic call (Test System: AMES SALMONELLA TYPHIMURIUM, Strain/Indicator: TA97, Metabolic Activation: RAT, LIVER, S-9, AROCLOR 1254 (30%), Method: PREINCUBATION) was “inactive; negative”, the mutagenic call (Test System: AMES SALMONELLA TYPHIMURIUM, Strain/Indicator: TA98, Metabolic Activation: HAMSTER, LIVER, S-9, AROCLOR 1254 (10 OR 30%), Method: PREINCUBATION) was “inactive; negative” and the mutagenic call [1] was “inactive; negative”. For the same compound, the mutagenic call [2] was “inactive; negative”, the mutagenic call (Test System: AMES SALMONELLA TYPHIMURIUM, Strain/Indicator: TA98, Metabolic Activation: RAT, LIVER, S-9, AROCLOR 1254 (10 OR 30%), Method: PREINCUBATION) was “inactive; negative” and the mutagenic call [3] was “inactive; negative”. The mutagenic call [4] was “inactive; negative”, the mutagenic call (Test System: AMES SALMONELLA TYPHIMURIUM, Strain/Indicator: TA100, Metabolic Activation: HAMSTER, LIVER, S-9, AROCLOR 1254 (30%), Method: PREINCUBATION) was “inactive; negative” and the mutagenic call [5] was “inactive; negative”. For the same compound, the mutagenic call [6] was “inactive; negative”, the mutagenic call [7] was “inactive; negative” and the mutagenic call (Test System: AMES SALMONELLA TYPHIMURIUM, Strain/Indicator: TA100, Metabolic Activation: RAT, LIVER, S-9, AROCLOR 1254 (30%), Method: PREINCUBATION) was “inactive; negative”. For the same compound, the mutagenic call [8] was “inactive; negative”, the mutagenic call (Test System: AMES SALMONELLA TYPHIMURIUM, Strain/Indicator: TA102, Metabolic Activation: HAMSTER, LIVER, S-9, AROCLOR 1254 (10%), Method: PREINCUBATION) was “inactive; negative” and the mutagenic call (Test System: AMES SALMONELLA TYPHIMURIUM, Strain/Indicator: TA102, Metabolic Activation: HAMSTER, LIVER, S-9, AROCLOR 1254 (30%), Method: PREINCUBATION) was “inactive; negative”. For the same compound, the mutagenic call (Test System: AMES SALMONELLA TYPHIMURIUM, Strain/Indicator: TA102, Metabolic Activation: NONE, Method: PREINCUBATION) was “inactive; negative”, the mutagenic call (Test System: AMES SALMONELLA TYPHIMURIUM, Strain/Indicator: TA102, Metabolic Activation: RAT, LIVER, S-9, AROCLOR 1254 (10%), Method: PREINCUBATION) was “inactive; negative” and the mutagenic call (Test System: AMES SALMONELLA TYPHIMURIUM, Strain/Indicator: TA102, Metabolic Activation: RAT, LIVER, S-9, AROCLOR 1254 (30%), Method: PREINCUBATION) was “inactive; negative”. For the same compound, the mutagenic call [9] was “inactive; negative”, the mutagenic call (Test System: AMES SALMONELLA TYPHIMURIUM, Strain/Indicator: TA1535, Metabolic Activation: HAMSTER, LIVER, S-9, AROCLOR 1254 (30%), Method: PREINCUBATION) was “inactive; negative” and the mutagenic call [10] was “inactive; negative”. The mutagenic call [11] was “inactive; negative”, the mutagenic call [12] was “inactive; negative” and the mutagenic call (Test System: AMES SALMONELLA TYPHIMURIUM, Strain/Indicator: TA1535, Metabolic Activation: RAT, LIVER, S-9, AROCLOR 1254 (30%), Method: PREINCUBATION) was “inactive; negative”. For the same compound, the mutagenic call [13] was “inactive; negative”, the mutagenic call [14] was “inactive; negative” and the mutagenic call [15] was “inactive; negative”.
